Measured values taken from PubChem BioAssay (NCI).
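Each compound was tested at five concentrations against cells in 96-well plates for 48 hours. TGI denotes the concentration required for complete inhibition of growth.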

Legend:
Assay in all cases: NCI-60 cell line screen, 48 h
786-0 renal = test system: 786-0 renal
A498 renal = test system: A498 renal
A549 NSCLC = test system: A549 NSCLC
BT-549 breast = test system: BT-549 breast
CAKI-1 renal = test system: CAKI-1 renal
CCRF-CEM leukemia = test system: CCRF-CEM leukemia
COLO 205 colon = test system: COLO 205 colon
DU-145 prostate = test system: DU-145 prostate
EKVX NSCLC = test system: EKVX NSCLC
HCC-2998 colon = test system: HCC-2998 colon
HCT-116 colon = test system: HCT-116 colon
HL-60(TB) leukemia = test system: HL-60(TB) leukemia
HOP-62 NSCLC = test system: HOP-62 NSCLC
HOP-92 NSCLC = test system: HOP-92 NSCLC
HS 578T breast = test system: HS 578T breast
HT29 colon = test system: HT29 colon
IGROV1 ovarian = test system: IGROV1 ovarian
K-562 leukemia = test system: K-562 leukemia
KM12 colon = test system: KM12 colon
LOX IMVI melanoma = test system: LOX IMVI melanoma
M14 melanoma = test system: M14 melanoma
MCF7 breast = test system: MCF7 breast
MDA-MB-231 breast = test system: MDA-MB-231 breast
MDA-MB-435 = test system: MDA-MB-435
MDA-N = test system: MDA-N
MOLT-4 leukemia = test system: MOLT-4 leukemia
NCI-H226 lung = test system: NCI-H226 lung
NCI-H23 lung = test system: NCI-H23 lung
NCI-H460 lung = test system: NCI-H460 lung
NCI-H522 lung = test system: NCI-H522 lung
NCI/ADR-RES ovarian = test system: NCI/ADR-RES ovarian
OVCAR-3 ovarian = test system: OVCAR-3 ovarian
OVCAR-4 ovarian = test system: OVCAR-4 ovarian
OVCAR-5 ovarian = test system: OVCAR-5 ovarian
OVCAR-8 ovarian = test system: OVCAR-8 ovarian
PC-3 prostate = test system: PC-3 prostate
RPMI-8226 leukemia = test system: RPMI-8226 leukemia
RXF 393 renal = test system: RXF 393 renal
SF-268 CNS = test system: SF-268 CNS
SF-295 CNS = test system: SF-295 CNS
SF-539 CNS = test system: SF-539 CNS
SK-MEL-2 melanoma = test system: SK-MEL-2 melanoma
SK-MEL-5 melanoma = test system: SK-MEL-5 melanoma
SN12C renal = test system: SN12C renal
SNB-75 CNS = test system: SNB-75 CNS
SR leukemia = test system: SR leukemia
SW-620 colon = test system: SW-620 colon
T-47D breast = test system: T-47D breast
TK-10 renal = test system: TK-10 renal
UACC-257 melanoma = test system: UACC-257 melanoma
UACC-62 melanoma = test system: UACC-62 melanoma
UO-31 renal = test system: UO-31 renal
ACHN renal = test system: ACHN renal
HCT-15 colon = test system: HCT-15 colon
MALME-3M melanoma = test system: MALME-3M melanoma
SK-MEL-28 melanoma = test system: SK-MEL-28 melanoma
SK-OV-3 ovarian = test system: SK-OV-3 ovarian
SNB-19 CNS = test system: SNB-19 CNS
U251 CNS = test system: U251 CNS

Cc1ccnc2c1ccc1nc3ccccc3n12 gave a TGI (786-0 renal) greater than 100 µM, a TGI (A498 renal) greater than 100 µM and a TGI (A549 NSCLC) greater than 100 µM. It also gave a TGI (BT-549 breast) greater than 100 µM, a TGI (CAKI-1 renal) greater than 100 µM and a TGI (CCRF-CEM leukemia) greater than 100 µM. For the same compound, the TGI (COLO 205 colon) was greater than 100 µM, the TGI (DU-145 prostate) was greater than 100 µM and the TGI (EKVX NSCLC) was greater than 100 µM. For the same compound, the TGI (HCC-2998 colon) was greater than 100 µM, the TGI (HCT-116 colon) was greater than 100 µM and the TGI (HL-60(TB) leukemia) was greater than 100 µM. For the same compound, the TGI (HOP-62 NSCLC) was greater than 100 µM, the TGI (HOP-92 NSCLC) was greater than 100 µM and the TGI (HS 578T breast) was greater than 100 µM. It also gave a TGI (HT29 colon) greater than 100 µM, a TGI (IGROV1 ovarian) greater than 100 µM and a TGI (K-562 leukemia) greater than 100 µM. For the same compound, the TGI (KM12 colon) was greater than 100 µM, the TGI (LOX IMVI melanoma) was greater than 100 µM and the TGI (M14 melanoma) was greater than 100 µM. It also gave a TGI (MCF7 breast) greater than 100 µM, a TGI (MDA-MB-231 breast) greater than 100 µM and a TGI (MDA-MB-435) greater than 100 µM. For the same compound, the TGI (MDA-N) was greater than 100 µM, the TGI (MOLT-4 leukemia) was greater than 100 µM and the TGI (NCI-H226 lung) was greater than 100 µM. It also gave a TGI (NCI-H23 lung) greater than 100 µM, a TGI (NCI-H460 lung) greater than 100 µM and a TGI (NCI-H522 lung) of 44.5 µM. For the same compound, the TGI (NCI/ADR-RES ovarian) was greater than 100 µM, the TGI (OVCAR-3 ovarian) was greater than 100 µM and the TGI (OVCAR-4 ovarian) was greater than 100 µM. It also gave a TGI (OVCAR-5 ovarian) greater than 100 µM, a TGI (OVCAR-8 ovarian) of 92.4 µM and a TGI (PC-3 prostate) greater than 100 µM. The TGI (RPMI-8226 leukemia) was greater than 100 µM, the TGI (RXF 393 renal) was greater than 100 µM and the TGI (SF-268 CNS) was 99.6 µM. It also gave a TGI (SF-295 CNS) greater than 100 µM, a TGI (SF-539 CNS) greater than 100 µM and a TGI (SK-MEL-2 melanoma) greater than 100 µM. It also gave a TGI (SK-MEL-5 melanoma) of 93.1 µM, a TGI (SN12C renal) greater than 100 µM and a TGI (SNB-75 CNS) greater than 100 µM. The TGI (SR leukemia) was greater than 100 µM, the TGI (SW-620 colon) was greater than 100 µM and the TGI (T-47D breast) was greater than 100 µM. For the same compound, the TGI (TK-10 renal) was greater than 100 µM, the TGI (UACC-257 melanoma) was greater than 100 µM and the TGI (UACC-62 melanoma) was greater than 100 µM. For the same compound, the TGI (UO-31 renal) was greater than 100 µM.

For COc1ccc(CCN(C)C(=O)CC(C#N)(c2ccccc2)c2ccc(OC)c(OC)c2)cc1OC (stereo not given), the TGI (786-0 renal) was greater than 100 µM, the TGI (A498 renal) was greater than 100 µM and the TGI (A549 NSCLC) was greater than 100 µM. The TGI (ACHN renal) was greater than 100 µM, the TGI (BT-549 breast) was greater than 100 µM and the TGI (CAKI-1 renal) was greater than 100 µM. It also gave a TGI (CCRF-CEM leukemia) greater than 100 µM, a TGI (COLO 205 colon) greater than 100 µM and a TGI (DU-145 prostate) greater than 100 µM. It also gave a TGI (EKVX NSCLC) greater than 100 µM, a TGI (HCT-116 colon) greater than 100 µM and a TGI (HCT-15 colon) greater than 100 µM. The TGI (HL-60(TB) leukemia) was greater than 100 µM, the TGI (HOP-62 NSCLC) was greater than 100 µM and the TGI (HOP-92 NSCLC) was greater than 76 µM. The TGI (HS 578T breast) was greater than 100 µM, the TGI (HT29 colon) was greater than 100 µM and the TGI (IGROV1 ovarian) was greater than 100 µM. It also gave a TGI (K-562 leukemia) greater than 100 µM, a TGI (KM12 colon) greater than 100 µM and a TGI (LOX IMVI melanoma) greater than 100 µM. The TGI (M14 melanoma) was greater than 100 µM, the TGI (MALME-3M melanoma) was greater than 100 µM and the TGI (MCF7 breast) was greater than 100 µM. The TGI (MDA-MB-231 breast) was greater than 100 µM, the TGI (MDA-MB-435) was greater than 100 µM and the TGI (MDA-N) was greater than 100 µM. The TGI (MOLT-4 leukemia) was greater than 100 µM, the TGI (NCI-H226 lung) was greater than 100 µM and the TGI (NCI-H23 lung) was greater than 100 µM. The TGI (NCI-H460 lung) was greater than 100 µM, the TGI (NCI-H522 lung) was greater than 100 µM and the TGI (NCI/ADR-RES ovarian) was greater than 100 µM. For the same compound, the TGI (OVCAR-3 ovarian) was greater than 100 µM, the TGI (OVCAR-4 ovarian) was greater than 100 µM and the TGI (OVCAR-5 ovarian) was greater than 100 µM. It also gave a TGI (OVCAR-8 ovarian) greater than 100 µM, a TGI (PC-3 prostate) greater than 100 µM and a TGI (RPMI-8226 leukemia) greater than 100 µM. It also gave a TGI (RXF 393 renal) greater than 100 µM, a TGI (SF-268 CNS) greater than 100 µM and a TGI (SF-295 CNS) greater than 100 µM. It also gave a TGI (SF-539 CNS) greater than 100 µM, a TGI (SK-MEL-2 melanoma) greater than 100 µM and a TGI (SK-MEL-28 melanoma) greater than 100 µM. The TGI (SK-MEL-5 melanoma) was greater than 100 µM, the TGI (SK-OV-3 ovarian) was greater than 100 µM and the TGI (SN12C renal) was greater than 100 µM. The TGI (SNB-19 CNS) was greater than 100 µM, the TGI (SNB-75 CNS) was greater than 100 µM and the TGI (SR leukemia) was 99.3 µM. It also gave a TGI (SW-620 colon) greater than 100 µM, a TGI (T-47D breast) greater than 100 µM and a TGI (TK-10 renal) greater than 100 µM. The TGI (U251 CNS) was greater than 100 µM, the TGI (UACC-257 melanoma) was greater than 100 µM and the TGI (UACC-62 melanoma) was greater than 100 µM. It also gave a TGI (UO-31 renal) greater than 100 µM.
